Source: patent US20190070128A1, “USE OF CANNABIDIVARIN IN THE TREATMENT OF AUTISM SPECTRUM DISORDER, ASSOCIATED DISORDERS AND SCHIZOPHRENIA” (GW Research Limited, priority 2016, published 2019)
Entries after “also recorded” stand apart in the source; their conditions may differ.

Assays:
Fmr1 KO and WT mice = assay: susceptibility to audiogenic seizures in Fmr1 KO and WT mice (PND21); assay type: in vivo, mouse; conditions: for audiogenic seizures: FXS mice
Description: This trait was evaluated in PND21 mice after acute administration of the compounds or its vehicle, 30 min before starting the procedure. To measure audiogenic seizure sensitivity mice were placed individually into a novel environment, a glass cylinder (40 cm high, 16 cm diameter) and allowed to explore for 1 min. Next, a bell (100 dB) was rung for 30 sec and seizure activity scored according to the following scale: no response, 0; wild running, 1; clonic seizure, 2; tonic seizure, 3; status epilepticus/respiratory arrest/death, 4.
On postnatal day 21 (PND21) WT and Fmr1 KO mice were injected with CBDV (2, 10, 20 or 100 mg/kg) or vehicle, 30 min before exposure to a bell ring (100 dB). Mice exposed to this noise for 30 sec ceased from their normal exploratory behaviour and reacted with gradually to wild-running, clonic seizure, tonic seizure or death. The maximum response was annotated for each mouse as detailed in Table 2 below. A score was calculated according to the severity of the symptoms as explained in the Methods section.

PCP-treated rats = assay: social interaction test in sub-chronic PCP treated rats; assay type: in vivo, rat
Description: Female hooded-Lister rats were used for this experiment. Rats were housed in groups of 5 under standard laboratory conditions under a 12 hr light: dark cycle, lights on at 0700 hr. Testing was carried out in the light phase.
Rats were randomly assigned to two treatment groups and treated with vehicle, n=20 (distilled water, i.p.) or Phencyclidine hydrochloride (PCP), n=100 (2 mg/kg, i.p. twice daily for 7-days). PCP was dissolved in distilled water. This was followed by a 7-day wash out period before the rats were tested following acute treatment with CBDV, risperidone or vehicle.
Risperidone (0.1 mg/kg) was dissolved in a minimum volume of acetic acid, made up to volume with distilled water and pH adjusted to 6 with 0.1M NaOH and administered via the i.p. route in a volume of 1 ml/kg, 60 min prior to testing.
CBDV at 2, 10 or 20 mg/kg was dissolved in 2:1:17 (Ethanol:Cremofor:Saline 0.9%) and administered via the i.p. route in a volume of 5 ml/kg, 60 min prior to testing.
The social interaction test is performed in an open-field comprising a square box made of Plexiglas (52×52×31 cm) placed 27 cm above the floor on a moveable trolley. The floor of the box is white with black gridlines forming 9 identical squares on it. All other walls are black. A video camera connected to a video recorder and monitor is positioned above the box. The object used for the test consists of a heavy structure made of metal that cannot be displaced by the animals.
The rats were habituated to the test environment and arena prior to the test day. Habituation consists of placing all rats from one cage together in the empty test arena for one hour for three days including the day before the test day.
Pairs of rats, weight matched (15-20 g) and unfamiliar to each other, receiving either no treatment (n=70 “conspecific” rats) or different treatments (PCP and Vehicle; n=10 “tested” rats or PCP+Drug; n=50 “tested” rats) were placed in the test arena together for 10 min and behaviour assessed as described below.
An inanimate object such as an unopened drinks can is also placed in the centre of the arena to measure any differences in interaction of the test animal with an unfamiliar animal as opposed to an unfamiliar object. After each 10 minute trial, the object and arena are cleaned with 10% alcohol in an attempt to remove traces of any olfactory cues. All testing is carried out under standard room illumination levels (70 cd/m2).
Behaviour in both trials was recorded on video for subsequent blind scoring. A behavioural scoring software program (Hindsight, Scientific programming services) is used to score the following parameters: • Investigative sniffing behaviour: sniffing the conspecific's snout or parts of the body including the anogenital region; • Following: rat moves after the conspecific i.e. a vehicle treated rat of the same species, around the arena; • Avoidances: actively turning away when approached by the conspecific animal; • Investigation of object: exploration of object placed in centre of the arena; and • Locomotor activity is recorded by counting the total number of sectors (i.e. lines) crossed by the test rat.

[1] = WT, CBDV 2 mg/kg, n = 6, acute (30 min)
[2] = WT, CBDV 10 mg/kg, n = 5, acute (30 min)
[3] = WT, CBDV 20 mg/kg, n = 6, acute (30 min)
[4] = WT, CBDV 100 mg/kg, n = 6, acute (30 min)

## C=C(C)[C@@H]1CCC(C)=C[C@H]1c1c(O)cc(CCC)cc1O [CBDV, Cannabidivarin]
Fmr1 KO and WT mice; 2 mg/kg, 0.5 h
  audiogenic seizures, maximum response: Clonic seizure: 0
  audiogenic seizures, maximum response: No response: 2
  audiogenic seizures, maximum response: Tonic seizure: 2
  audiogenic seizures, maximum response: Wild running: 1
Fmr1 KO and WT mice; 10 mg/kg, 0.5 h
  audiogenic seizures, maximum response: Clonic seizure: 0
  audiogenic seizures, maximum response: No response: 0
  audiogenic seizures, maximum response: Tonic seizure: 2
  audiogenic seizures, maximum response: Wild running: 3
Fmr1 KO and WT mice; 20 mg/kg, 0.5 h
  audiogenic seizures, maximum response: Clonic seizure: 0
  audiogenic seizures, maximum response: No response: 2
  audiogenic seizures, maximum response: Tonic seizure: 2
  audiogenic seizures, maximum response: Wild running: 1
Fmr1 KO and WT mice; 100 mg/kg, 0.5 h
  audiogenic seizures, maximum response: Clonic seizure: 0
  audiogenic seizures, maximum response: No response: 5
  audiogenic seizures, maximum response: Tonic seizure: 0
  audiogenic seizures, maximum response: Wild running: 0
Fmr1 KO and WT mice; FXS (Fmr1 KO), CBDV 2 mg/kg, n = 5, acute (30 min)
  audiogenic seizures, maximum response: Death: 0
Fmr1 KO and WT mice; FXS (Fmr1 KO), CBDV 10 mg/kg, n = 5, acute (30 min)
  audiogenic seizures, maximum response: Death: 0
Fmr1 KO and WT mice; FXS (Fmr1 KO), CBDV 20 mg/kg, n = 5, acute (30 min)
  audiogenic seizures, maximum response: Death: 0
Fmr1 KO and WT mice; FXS (Fmr1 KO), CBDV 100 mg/kg, n = 5, acute (30 min)
  audiogenic seizures, maximum response: Death: 0
Fmr1 KO and WT mice; 100 mg/kg acute, 100 mg/kg
  audiogenic seizures: remained seizure free; also recorded: completely eliminate the seizures
Fmr1 KO and WT mice; lower doses
  audiogenic seizures: seizures of varying severity
Fmr1 KO and WT mice; [1]
  audiogenic seizures, maximum response: Clonic seizure: 0
  audiogenic seizures, maximum response: Death: 0
  audiogenic seizures, maximum response: No response: 6
  audiogenic seizures, maximum response: Tonic seizure: 0
  audiogenic seizures, maximum response: Wild running: 0
Fmr1 KO and WT mice; [2]
  audiogenic seizures, maximum response: Clonic seizure: 0
  audiogenic seizures, maximum response: Death: 0
  audiogenic seizures, maximum response: No response: 5
  audiogenic seizures, maximum response: Tonic seizure: 0
  audiogenic seizures, maximum response: Wild running: 0
Fmr1 KO and WT mice; [3]
  audiogenic seizures, maximum response: Clonic seizure: 0
  audiogenic seizures, maximum response: Death: 0
  audiogenic seizures, maximum response: No response: 5
  audiogenic seizures, maximum response: Tonic seizure: 0
  audiogenic seizures, maximum response: Wild running: 1
Fmr1 KO and WT mice; [4]
  audiogenic seizures, maximum response: Clonic seizure: 0
  audiogenic seizures, maximum response: Death: 0
  audiogenic seizures, maximum response: No response: 6
  audiogenic seizures, maximum response: Tonic seizure: 0
  audiogenic seizures, maximum response: Wild running: 0
PCP-treated rats
  PCP effects on social interaction (sniffing, following, avoiding): reverse these effects in a statistically significant manner
PCP-treated rats; CBDV 20 mg/kg
  time spent avoiding the other rat: reduce
  time spent following the other rat: increased
PCP-treated rats; CBDV 10 and 20 mg/kg
  time spent sniffing the other rat: significantly increased
